Reference: ChEMBL document CHEMBL1132863, “Antioxidant function of phenethyl-5-bromo-pyridyl thiourea compounds with potent anti-HIV activity” (Bioorg Med Chem Lett, 2000)

Assays:
[1] = target: Human immunodeficiency virus type 1 reverse transcriptase (Human immunodeficiency virus 1, UniProt Q72547); experiment: Inhibition of recombinant HIV-1 reverse transcriptase
[2] = Antioxidant activity was evaluated by measuring the inhibition of oxidation of ABTS to ABTS+ by metmyoglobin in the presence of H2O2.; format: functional
NALM-6 = experiment: The compound was evaluated for percent reduction of H2O2-induced H2DCFDA fluorescence in NALM-6-B-cells.; format: functional, Homo sapiens; set-up: concentration or dose not given beside the values
CCRF-CEM = experiment: The compound was evaluated for percent reduction of H2O2-induced H2DCFDA fluorescence in human CEM T-cells.; format: functional; set-up: concentration or dose not given beside the values

Molecule	IC50 [1] [µM]	EC50 [2] [µM]	Reduction (NALM-6) [%]	Reduction (CCRF-CEM) [%]
CS/C(=N\CCc1ccccc1Cl)Nc1ccc(Br)cn1	> 100	> 1000	–	–
COc1ccc(CC/N=C(\S)Nc2ccc(Br)cn2)cc1	0.9	176	0	21.4
Clc1ccccc1CC/N=C(/Nc1ccc(Br)cn1)SCc1ccccc1	> 100	> 1000	–	–
COc1ccc(OC)c(CC/N=C(/Nc2ccc(Br)cn2)SCc2ccccc2)c1	> 100	> 1000	–	–
Fc1ccccc1CC/N=C(/Nc1ccc(Br)cn1)SCc1ccccc1	> 100	> 1000	–	–
Cc1cn([C@H]2C[C@H](N=[N+]=[N-])[C@@H](CO)O2)c(=O)[nH]c1=O [ZIDOVUDINE]	> 100	> 1000	–	–
VITAMIN E	–	377	–	–

These reach a lower EC50 [2]. Values come first.

IC50 [1] [µM]	EC50 [2] [µM]	Molecule	Reduction (NALM-6) [%]	Reduction (CCRF-CEM) [%]
0.4	90	COc1cccc(CC/N=C(\S)Nc2ccc(Br)cn2)c1	30.4	19.7
–	89	COc1ccc(OC)c(CCNC(=S)Nc2ccc(Br)cn2)c1	11.8	29.4
–	89	Fc1ccc(CC/N=C(\S)Nc2ccc(Br)cn2)cc1	2	13
–	109	Fc1ccccc1CC/N=C(\S)Nc1ccc(Br)cn1	–	47
1.3	98	S=C(NCCc1ccccc1)Nc1ccc(Br)cn1	37.1	32.1
1	79	COc1ccccc1CC/N=C(\S)Nc1ccc(Br)cn1	94.2	72.3
–	100	Fc1cccc(CC/N=C(\S)Nc2ccc(Br)cn2)c1	–	45
–	75	S=C(NCCc1ccccc1Cl)Nc1ccc(Br)cn1	32	56.3
–	84	CCCOC(=O)c1cc(O)c(O)c(O)c1 [PROPYL GALLATE]	–	–
